Measurements published in patent publication US5028596A, “1-(β-D-arabinofuranosyl)-5-propynyluracil for treatment of VZV infections” (Burroughs Wellcome Co., priority 1987, dated 1991).

Columns and labels:
[1] = Cell growth inhibition assay (cell toxicity, tetrazolium dye uptake); format: cell-based; settings: monkey; Vero cells; 50% inhibition of cell viability at 96 hours; read-out: CCID50 at 96 hr.
Protocol: Cell toxicity is assessed in a cell growth inhibition assay. Subconfluent cultures of Vero cells grown on 96-well microtiter dishes are exposed to different dilutions of drug, and cell viability determined daily on replicate cultures using uptake of a tetrazolium dye (MIT). The concentration required for a 50% inhibition of cell viability at 96 hours is termed CCID50.

[2] = system: Varicella zoster virus (VZV); assay: VZV plaque reduction assay in MRC5 cells (without agarose overlay); format: cell-based
Protocol: (§1) Human cytomegalovirus (HCMV) is assayed in monolayers of either MRC5 cells (human embryonic lung) or Detroit 532 cells (human foreskin fibroblasts) in multiwell trays. Activity of compounds is determined in the plaque reduction assay, in which a cell monolayer is infected with a suspension of HCMV, and then overlaid with nutrient agarose in the form of a gel to ensure that there is no spread of virus throughout the culture. A range of concentrations of compound of known molarity was incorporated in the nutrient agarose overlay. Plaque numbers of each concentration are expressed as percentage of the control and dose-response curve is drawn. From this curve the 50% inhibitory concentration (IC50) is estimated. Varicella zoster virus (VZV) is assayed in MRC5 cells by a similar method of that of MCMV with the omission of the agarose overlay.

[3] = system: Human cytomegalovirus (HCMV); assay: HCMV plaque reduction assay in MRC5 or Detroit 532 cells; format: cell-based
Protocol: as §1, with “estimated.” for “estimated. Varicella zoster virus (VZV) is assayed in MRC5 cells by a similar method of that of MCMV with the omission of the agarose overlay.”

[4] = system: vaccinia and herpes simplex; settings: in vitro, literature; cited from earlier work

C#Cc1cn([C@H]2C[C@H](OC(C)=O)[C@@H](COC(C)=O)O2)c(=O)nc1N [Example 2, 2'-Deoxy-3',5'-di-O-acetyl-5-ethynylcytidine]
CC50 at 96 h [1]: > 500 µM

CC#Cc1cn([C@H]2C[C@H](O)[C@@H](CO)O2)c(=O)[nH]c1=O [Example 1, 2'-Deoxy-5-propynyluridine]
CC50 at 96 h [1]: > 500 µM | IC50 ([2]; Human alphaherpesvirus 3, MRC5, MRC5 cells, plaque reduction): 1 µM | activity against VZV (in words) ([2]; qualitative statement): potent anti-VZV activity | IC50 ([3]; Human betaherpesvirus 5, MRC5, MRC5 or Detroit 532 cells, plaque reduction): > 16 µM

C#Cc1cn([C@H]2C[C@H](O)[C@@H](CO)O2)c(=O)nc1N [Example 3, 2'-Deoxy-5-ethynylcytidine]
activity against CMV (in words) ([3]; qualitative statement): high activity against CMV

C#Cc1cn([C@H]2C[C@H](O)[C@@H](CO)O2)c(=O)[nH]c1=O [2'-deoxy-5-ethynyluridine]
antiviral activity against vaccinia and herpes simplex (in words) [4]: did not demonstrate any effect of use in human medicinal chemotherapy
